# Experimental data: US20250066290A1, “DHODH INHIBITORS CONTAINING A CARBOXYLIC ACID BIOISOSTERE” (IMMUNIC AG, priority 2021, published 2025)
# How the values were obtained:
# [1] = tested on: SARS-CoV-2 Omicron variant; test: microbe, parasite or virus in culture; type: cell-based; conditions: Severe acute respiratory syndrome coronavirus 2; Caco-2 cells, dsRNA immunofluorescence; read-out: EC50 Omikron
# SARS-CoV-2 Delta variant = test: microbe, parasite or virus in culture; type: cell-based; conditions: Severe acute respiratory syndrome coronavirus 2; Caco-2 cells, dsRNA immunofluorescence
smiles,measurement,setting,value
"[2H]C([2H])([2H])Oc1cccc(-c2cc(F)c(NC(=O)c3ccsc3C(=O)NOC)c(F)c2)c1 [Example 9, N3-(3,5-Difluoro-3′-(methoxy-d3)-[1,1′-biphenyl]-4-yl)-N2-methoxythiophene-2,3-di-carboxamide]",EC50,[1],< 3 nM
same,EC50,SARS-CoV-2 Delta variant,< 3 nM
